Data: patent US7816325B2, “Secondary binding site of dipeptidyl peptidase IV (DP IV)” (OSI Pharmaceuticals, Inc., priority 2003, dated 2010)
Read-outs that look alike come from different tables or passages of the source. Blank lines part the entries; values can stand above or below the compound they belong to. Where a SMILES comes first, the peptide text is derived from it. [ ]: non-standard residue; d: D form. The star is where a group is joined. AMC = Cc1cc(=O)oc2cc(N*)ccc12

Assays:
[1] = DP IV-catalyzed truncation of peptides, half-life by MALDI-TOF MS; format: biochemical
Experimental: (§1) In particular, the capability of purified DP IV from human, from porcine kidney, of recombinant human DP IV and the DP IV activity of the human serum to truncate the peptides of the GRF family were analyzed.
(§2) 250 single laser-shot spectra were accumulated.

[2] = target: T1, recombinant human DP IV, mutation R560A (Homo sapiens, UniProt P27487, R560A); test: Kinetic characterization of substrate hydrolysis (Km, kcat); settings: mu 15 DP IV (R560A)
T1 sequence (P27487 37-766 R560A): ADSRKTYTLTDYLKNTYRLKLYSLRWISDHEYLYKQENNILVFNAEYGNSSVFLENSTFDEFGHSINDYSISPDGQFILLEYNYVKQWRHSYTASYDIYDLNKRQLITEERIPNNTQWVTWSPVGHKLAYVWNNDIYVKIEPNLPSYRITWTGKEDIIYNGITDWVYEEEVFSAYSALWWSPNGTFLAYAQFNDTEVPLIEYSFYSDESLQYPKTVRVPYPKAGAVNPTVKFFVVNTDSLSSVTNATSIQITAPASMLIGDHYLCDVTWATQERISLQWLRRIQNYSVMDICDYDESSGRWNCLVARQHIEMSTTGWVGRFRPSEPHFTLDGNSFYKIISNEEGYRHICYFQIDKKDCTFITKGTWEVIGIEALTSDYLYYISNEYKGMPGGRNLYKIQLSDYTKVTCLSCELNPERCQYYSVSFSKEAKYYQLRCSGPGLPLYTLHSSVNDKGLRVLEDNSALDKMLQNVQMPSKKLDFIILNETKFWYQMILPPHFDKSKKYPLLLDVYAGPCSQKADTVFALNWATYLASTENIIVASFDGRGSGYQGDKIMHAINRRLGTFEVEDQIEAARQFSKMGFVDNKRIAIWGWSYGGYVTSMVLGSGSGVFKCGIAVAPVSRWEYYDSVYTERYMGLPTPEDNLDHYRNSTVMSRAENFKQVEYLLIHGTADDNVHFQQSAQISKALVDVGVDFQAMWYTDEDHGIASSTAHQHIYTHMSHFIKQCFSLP

[3] = target: T2, recombinant human DP IV, wild type (Homo sapiens, UniProt P27487); test: as above; format: biochemical; settings: rh wt DP IV
T2 construct: His6 (N); made in house; host or cells: Pichia pastoris X-33 (vector pPICαC, secreted into the medium)
T2 sequence (P27487 37-766): as the sequence (P27487 37-766 R560A) above, with A524R counted along it

[4] = target: T3, recombinant human DP IV, mutation W629A (Homo sapiens, UniProt P27487, W629A); test: as above; settings: mu 16 DP IV (W629A)
T3 sequence (P27487 37-766 W629A): as the sequence (P27487 37-766 R560A) above, with A524R, W593A counted along it

DP IV [5] = test: DP IV-catalyzed peptide truncation test with or without preincubation with effector peptide; format: biochemical; settings: for affinity of larger oligopeptides such as GIP, VIP, glucagon / binding and hydrolysis of small dipeptide substrates: DP IV preincubated with the peptide
Experimental: as §2
In order to investigate directly the influence of the test compounds TFTSDY, TFTDDY and H-Ser-D-Glu-Thr-Gly-D-Val-D-Lys-D-Val-OH on the DP IV-catalyzed peptide hydrolysis the MALDI-TOF assay was used.
As described before (determination of t1/2) DP IV and the test compounds were preincubated and the reaction was started by adding the enzyme/hexapeptide mixture to substrate/buffer mix. The control reaction mixture consisted of buffer, enzyme and substrate. From the curves of the first order exponential the initial rate (vi) for the control and the reversible inhibited reaction was calculated.

[6] = Stability in biological fluids (human serum or plasma)
DP IV [7] = test: DP IV-catalyzed hydrolysis, determination of Km; format: biochemical
[8] = target: T2, recombinant human DP IV, wild type; test: Ki in competition to standard substrate GP-4NA; format: biochemical; settings: rh wt DP IV, competition to GP-4NA
Experimental: (§3) In order to measure the inhibition constant Ki a photometric assay was used The peptides were measured as competitors of the standard substrate GP-4-Nitroanilide. Three different substrate concentrations (0.4 mM to 0.05 mM) were combined with 8 different competitor concentrations (0.5 mM to 2 μM). […] Experiments were carried out under standard conditions: 30° C. in pH 7.6 40 mM HEPES (Sigma-Aldrich) buffer. Nitroaniline production was monitored using a HTS 7000+ microplate reader (PerkinElmer, Überlingen, Germany).

[9] = target: T1, recombinant human DP IV, mutation R560A; test: Ki in competition to standard substrate GP-4NA; format: biochemical; parameters: His6 (N); made in house; host or cells: Pichia pastoris X-33 (vector pPICαC, secreted); settings: mu 15 DP IV (R560A), competition to GP-4NA
Experimental: as §3

[10] = target: T3, recombinant human DP IV, mutation W629A; test: Ki in competition to standard substrate GP-4NA; format: biochemical; parameters: His6 (N); made in house; host or cells: Pichia pastoris X-33 (vector pPICαC, secreted); settings: mu 16 DP IV (W629A), competition to GP-4NA
Experimental: as §3

[11] = target: T4, porcine kidney DP IV, wild type (Sus scrofa, UniProt P22411); test: Kinetic characterization of substrate hydrolysis (Km); format: biochemical; settings: p wt DP IV
T4 construct: the DP IV-protein was released from the membrane by an 18 h autolysis step at 30° C; from tissue; host or cells: porcine kidney cortex
T4 sequence (P22411 38-766 limits assumed): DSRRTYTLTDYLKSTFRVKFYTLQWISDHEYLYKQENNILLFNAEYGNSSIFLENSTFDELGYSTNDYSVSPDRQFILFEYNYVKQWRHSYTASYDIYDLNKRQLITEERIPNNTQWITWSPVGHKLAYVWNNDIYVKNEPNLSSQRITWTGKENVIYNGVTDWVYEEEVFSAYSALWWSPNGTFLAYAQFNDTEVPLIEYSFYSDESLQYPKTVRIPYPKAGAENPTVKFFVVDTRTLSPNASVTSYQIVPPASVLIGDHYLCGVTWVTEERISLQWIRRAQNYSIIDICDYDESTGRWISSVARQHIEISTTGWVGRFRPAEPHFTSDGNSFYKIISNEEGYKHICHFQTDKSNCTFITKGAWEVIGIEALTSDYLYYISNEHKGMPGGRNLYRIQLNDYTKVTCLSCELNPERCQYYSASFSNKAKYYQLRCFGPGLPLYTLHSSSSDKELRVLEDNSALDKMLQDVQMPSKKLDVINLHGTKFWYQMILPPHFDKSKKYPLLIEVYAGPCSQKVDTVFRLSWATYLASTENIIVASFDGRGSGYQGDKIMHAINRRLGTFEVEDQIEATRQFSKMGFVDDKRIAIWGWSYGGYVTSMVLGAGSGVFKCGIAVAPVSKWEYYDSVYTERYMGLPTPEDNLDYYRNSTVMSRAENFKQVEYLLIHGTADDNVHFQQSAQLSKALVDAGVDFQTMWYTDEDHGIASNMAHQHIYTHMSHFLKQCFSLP

[12] = target: T4, porcine kidney DP IV, wild type; test: Ki in competition to standard substrate GP-4NA; format: biochemical; settings: p wt DP IV; competition to GP-4NA
Experimental: (§4) In order to measure the inhibition constant Ki a photometric assay was used The peptides were measured as competitors of the standard substrate GP-4-Nitroanilide. Three different substrate concentrations (0.4 mM to 0.05 mM) were combined with 8 different competitor concentrations (0.5 mM to 2 μM). The reaction was started by addition of 3.5 nM DP IV. Experiments were carried out under standard conditions: 30° C. in pH 7.6 40 mM HEPES (Sigma-Aldrich) buffer. Nitroaniline production was monitored using a HTS 7000+ microplate reader (PerkinElmer, Überlingen, Germany). The Ki-values were calculated via non-linear regression using the enzyme kinetic program Grafit 4.016 (Erithacus Ltd, UK).

DP IV [13] = test: DP IV-catalyzed truncation of peptides, half-life by MALDI-TOF MS; format: biochemical; settings: for hydrolysis by DP IV: GIP-fragments of different chain lengths
Experimental: as §1, §2

DP IV [14] = test: Photometric Ki assay, competition with standard substrate GP-4-Nitroanilide; format: biochemical; settings: read-out: Ki, influence on GP-4-Nitroanilide hydrolysis
Experimental: as §4
For a reversible competitive inhibition is to assumed: […]

[15] = preincubation with 160 μM TFTSDY

half-life ([1]; bioactive peptides which are substrates for DP IV, read-out: Truncation half life): < 0.125 h
Compound: C[C@H](NC(=O)[C@@H](N)Cc1ccc(O)cc1)C(=O)N[C@@H](CCC(=O)O)C(=O)NCC(=O)N[C@H](C(=O)N[C@@H](Cc1ccccc1)C(=O)O)[C@@H](C)O [GIP1-6, YAEGTF] (H-YAEGTF-OH; N-terminus and C-terminus assumed)

Km [2]: 46.6 µM
kcat [2]: 1e+06 s⁻¹
Km [3]: 35.3 µM
kcat [3]: 1.66e+06 s⁻¹
Km [4]: 50.2 µM
kcat [4]: 1.44e+06 s⁻¹
Compound: Cc1cc(=O)oc2cc(NC(=O)[C@@H]3CCCN3C(=O)CN)ccc12 [Gly-Pro-AMC, H-Gly-Pro-AMC] (H-Gly-Pro-{AMC})

Km [2]: Not hydrolyzed
Km [3]: 440 µM
Km [4]: Not hydrolyzed
Compound: Cc1cc(=O)oc2cc(NC(=O)[C@H](CO)NC(=O)CN)ccc12 [Gly-Ser-AMC] (H-Gly-Ser-{AMC})

binding and hydrolysis of small dipeptide substrates (DP IV [5]): only slightly influenced
stability in biological fluids [6]: not enzymatically degraded
Compound: CC(C)[C@@H](NC(=O)[C@@H](CCCCN)NC(=O)[C@H](NC(=O)CNC(=O)[C@@H](NC(=O)[C@@H](CCC(=O)O)NC(=O)[C@@H](N)CO)[C@@H](C)O)C(C)C)C(=O)O [H-Ser-D-Glu-Thr-Gly-D-Val-D-Lys-D-Val-OH] (H-S[dE]TG[dV][dK][dV]-OH)
affinity of larger oligopeptides such as GIP, VIP, glucagon (DP IV [5]): considerably reduced
improving the substrate specificity of DP IV (DP IV [5]; compared to control experiments without the heptapeptide): very effective

Km (DP IV [7]): 410 µM
Compound: Cc1cc(=O)oc2cc(NC(=O)CNC(=O)[C@@H](N)Cc3c[nH]cn3)ccc12 [His-Gly-AMC] (H-His-Gly-{AMC})

Ki ([8]; read-out: Ki): 65.8 nM
Ki ([9]; read-out: Ki): 68.1 nM
Ki ([10]; read-out: Ki): 65.7 nM
Km [3]: 42.6 µM
Km [11]: 59.8 µM
Ki [12]: 72.9 nM
Compound: CC(C)C[C@H](N)C(=O)N1CCSC1 [Leu-Thia-Fum]

Compound: C[C@@H](O)[C@H](NC(=O)CNC(=O)[C@H](CCC(=O)O)NC(=O)[C@H](CO)NC(=O)[C@@H](N)Cc1ccc(O)cc1)C(=O)N[C@@H](Cc1ccccc1)C(=O)O [S^2GIP1-6] (H-YSEGTF-OH; N-terminus and C-terminus assumed)
Ki [8]: no inhibition
hydrolysis by DP IV (DP IV [13]): truncated
half-life [1]: 1.32 h
Ki [9]: no inhibition
Ki [10]: no inhibition

Compound: C[C@@H](O)[C@H](N)C(=O)N[C@@H](Cc1ccccc1)C(=O)N[C@H](C(=O)N[C@@H](CC(=O)O)C(=O)N[C@@H](CC(=O)O)C(=O)N[C@@H](Cc1ccc(O)cc1)C(=O)O)[C@@H](C)O [TFTDDY] (H-TFTDDY-OH)
stability in biological fluids [6]: instable

Compound: C[C@@H](O)[C@H](N)C(=O)N[C@@H](Cc1ccccc1)C(=O)N[C@H](C(=O)N[C@@H](CO)C(=O)N[C@@H](CC(=O)O)C(=O)N[C@@H](Cc1ccc(O)cc1)C(=O)O)[C@@H](C)O [TFTSDY] (H-TFTSDY-OH; N-terminus and C-terminus assumed)
Ki [8]: no inhibition
Ki (DP IV [14]): 710000 nM
Ki [9]: no inhibition
Ki [10]: no inhibition
half-lifes of GIP, Glucagon, PACAP-27 and PACAP-38 (DP IV [5]; DP IV (porcine and recombinant human) catalyzed peptide truncation test, FIG. 16): prolongation
affinity of larger oligopeptides such as GIP, VIP, glucagon (DP IV [5]): considerably reduced
binding and hydrolysis of small dipeptide substrates (DP IV [5]): only slightly influenced
half-lives of GIP and glucagon in presence of DP IV (DP IV [5]; [15]): prolonged
incubation of Rantes1-15 and DP IV with or without the hexapeptide (DP IV [5]; [15]): No differences
stability in biological fluids [6]: instable

Ki ([8]; read-out: Ki): 35.1 nM
Compound: C[C@H](NC(=O)[C@@H](N)Cc1ccc(O)cc1)C(=O)N[C@@H](CCC(=O)O)C(=O)N[C@@H](CO)C(=O)N[C@H](C(=O)N[C@@H](Cc1ccccc1)C(N)=O)[C@@H](C)O [YAESTF amide] (H-YAESTF-NH2; N-terminus assumed)

Compound: G^2GIP1-6: GIP-fragment analog (YAEGTF)
Truncation half life (DP IV [13]): no degradation
hydrolysis by DP IV (DP IV [13]): not hydrolyzed

Compound: Glucagon
Km (DP IV [7]): 3.8 µM

Km (DP IV [7]): 68 µM
Compound: His^1-Ser^2-NPY: NPY analog, full-length substrate

Compound: V^2GIP1-6: GIP-fragment analog (YAEGTF)
Truncation half life (DP IV [13]): no degradation
hydrolysis by DP IV (DP IV [13]): not hydrolyzed

Ki [8]: no inhibition
Ki [9]: no inhibition
Ki [10]: no inhibition
Compound: V^2GIP(1-4): GIP-fragment analog, test compound of Table 5 (YAEGTF)

Compound: [Gly]^2-glucagon: glucagon analog
Km (DP IV [7]): 22 µM
